For assay [1], the system named is CD70. Description: CD70 expression level in U87-MG cells. The conditions noted are these: both the lower and higher doses, compared to the control; not statistically significant (FIG. 13). The assay is classed as cell-based, human.
For assay [2], the system named is U87-MG-xenografted mice. The experiment in a line: Tumor volume and tumor mass in U87-MG-xenografted mice. The assay is classed as in vivo. The conditions noted are these: for tumor volume in a subset of mice: subset (top 4-5, smallest tumor volume) of U87-MG-xenografted mice, 10 mg/kg L-NIL or both. How it is done: In FIGS. 16A-16B, data are expressed as the mean±SEM. Statistical significance was determined using a One-way ANOVA followed by Fisher's LSD multiple comparison post hoc test. **P<0.01, ***P<0.001, ****P<0.0001, and ns=not significant.
FIG. 16A: Temporal tumor volume comparison for U87-MG-xenografted mice receiving treatment with 0.1% DMSO (“vehicle”) (n=10), 80 mg/kg 7-NI (“7-NI”) (n=10), 10 mg/kg L-NIL (“L-NIL”) (n=10), or 80 mg/kg 7-NI and 10 mg/kg L-NIL concurrently administered (“Combo”) (n=15).
FIG. 16B: Quantitative analysis of tumor volume for U87-MG-xenografted mice after 8 days for the experiments of FIG. 16A.
In FIGS. 17A-17B, data are expressed as the mean±SEM. Statistical significance was determined using a One-way ANOVA followed by Fisher's LSD multiple comparison post hoc test. *P<0.05, ****P<0.0001, and ns=not significant.
FIG. 17B: Quantitative analysis of tumor volume after 8 days for the subset of U87-MG-xenografted mice for the experiments of FIG. 17A.
In FIGS. 18A-18B, data are expressed as the mean.
Data are expressed as the mean±SEM. Statistical significance was determined using a One-way ANOVA with Bonferroni's multiple comparisons tests. **P<0.01, ****P<0.0001, ns=not significant.
Data are expressed as the mean±SEM. Statistical significance was determined using a One-way ANOVA with Bonferroni's multiple comparisons tests. *P<0.05, **P<0.01, ***P<0.001, and ****P<0.0001.

For assay [3], the system named is U87-MG-xenografted mice. The experiment in a line: Tumor growth in U87-MG-xenografted mice. Format: in vivo. As to conditions: 10 mg/kg, compared to the vehicle (FIGS. 16-17). How it is done: In a particular example, in vitro and in vivo experiments were performed using U87-MG cells and U87-MG-xenografted mice, respectively, as a glioblastoma model.
Assay [4] has as its system SH-SY5Y cells. The experiment in a line: NADPH-diaphorase activity in cell lysates of SH-SY5Y cells. Format: cell-based, human. As to conditions: 100 μM 7-NI or 20 nM siRNA (SEQ ID NO: 4), absorbance at 585 nm normalized for total protein, n=3. As to the method:
(§1) In FIGS. 2A-2C, for quantitative analysis absorbance at 585 nm was normalized for total protein. Data are expressed as the mean±SEM. Statistical significance was determined using a One-way ANOVA followed by Fisher's LSD multiple comparison post hoc test. *P<0.05 and **P<0.01.
FIG. 2A: Quantitative analysis of NADPH-diaphorase activity in cell lysates of SH-SY5Y cells following the administration of the control (“SH-SY5Y”) (n=3), 0.1% DMSO (“SH-SY5Y+NC”) (n=3), 100 μM 7-NI (“SH-SY5Y+7-NI”) (n=3), or 20 nM siRNA (SEQ ID NO: 4) (“SH-SY5Y+si-nNOS”) (n=3).
FIG. 2C: Representative images of cultured SH-SY5Y cells stained for NADPH-diaphorase activity.

For assay [5], the system named is SH-SY5Y cells. The experiment in a line: Nitrite levels (marker of NO levels) by Griess assay in SH-SY5Y cells. The assay is classed as cell-based, human. As to conditions: 100 μM 7-NI or 20 nM siRNA (SEQ ID NO: 4), n=3. How it is done:
as §1
FIG. 2B: Quantitative analysis of nitrite levels (a marker of NO levels) measured by Griess assay for SH-SY5Y cells following administration of the control (“SH-SY5Y”) (n=3), 0.1% DMSO (“SH-SY5Y+NC”) (n=3), 100 μM 7-NI (“SH-SY5Y+7-NI”) (n=3), 20 nM siRNA (SEQ ID NO: 4) (“SH-SY5Y+si-nNOS”) (n=3).
On the technique in general: Nitrite, measured by Griess reagent, commonly stands in for NO production.

The subject of assay [6] is SH-SY5Y cells. Description: Clonogenic survival of SH-SY5Y cells. The assay is classed as cell-based, human. As to conditions: 100 μM 7-NI or 20 nM siRNA (SEQ ID NO: 4), n=4. As to the method: In FIGS. 3A-3B, for quantitative analysis data, all individual data series are presented as biological replicates (n=4) for all groups. Data are presented as mean±SEM. Statistical significance was determined using a One-way ANOVA followed by Fisher's LSD multiple comparison post hoc test. *P<0.05, **P<0.01, and ns=not significant.
FIG. 3A: Representative well images of clonogenic growth following administration of the control (“SH-SY5Y”), 0.1% DMSO (“SH-SY5Y+NC”), 100 μM 7-NI (“SH-SY5Y+7-NI”), or 20 nM siRNA (SEQ ID NO: 4) (“SH-SY5Y+si-nNOS”).
FIG. 3B: Quantitative analysis of clonogenic survival for the experiments of FIG. 3A.

The test system of assay [7] is SH-SY5Y cells. Description: Xenograft neuroblastoma model, SH-SY5Y cells in NSG mice. The assay is classed as in vivo. The conditions noted are these: NSG male mice, 80 mg/kg 7-NI intraperitoneally three times per week, one month, vs control. As to the method: A xenograft neuroblastoma model was generated by injecting 4.0×10^6 SH-SY5Y cells (in a 50:50 mixture of PBS and matrigel basement membrane matrix) into the subcutaneous tissue in the flank of NOD SCID Gamma (NSG) male mice. Mice were 6-8 weeks old at time of injections. The mice were examined for 1 month.
Two treatment groups of mice were used (n=8), wherein one group was administered control, and the second group was administered 80 mg/kg of 7-NI administered intraperitoneally three times per week. Treatment started after five days from the injection with SH-SY5Y cells. After one month, all mice were euthanized, and tumors were harvested for ex vivo analysis and histology. Tumor volume was measured using calipers and was calculated as (length^2*width)/2

[8] abbreviates: U87-MG-xenografted mice, 80 mg/kg 7-NI, 10 mg/kg L-NIL or both concurrently, after 8 days, vs vehicle.

The structures appear in SMILES notation.

Take `CC(=N)NCCCC[C@H](N)C(=O)O` [L-NIL, N^6-(1-iminoethyl)-L-lysine]: in assay [1], the “expression level of CD70” value is on record as “slightly decreased”. Also, in assay [2] (setting [8]), the tumor volume entry is “significantly smaller”. The “tumor volume in a subset of mice” value in assay [2] (80 mg/kg 7-NI, after 8 days) is reported as “significantly smaller”. Also, the average tumor size entry in assay [3] is “significantly smaller”.

In the case of `O=[N+]([O-])c1cccc2cn[nH]c12` [7-NI, 7-nitroindazole], in assay [4], the NADPH-diaphorase activity result is listed as “significant decrease”. Besides, the tumor volume result in assay [2] (setting [8]) is listed as “significantly smaller”; in assay [2] (U87-MG-xenografted mice, 20, 40 or 80 mg/kg 7-NI intraperitoneal for 14 days, vs vehicle), “significantly smaller”. In assay [2] (U87-MG-xenografted mice, 20, 40 or 80 mg/kg 7-NI, after 14 days, vs vehicle), the tumor mass entry is “significantly smaller”. Further, the “tumor volume in a subset of mice” value in assay [2] (80 mg/kg 7-NI, after 8 days) is listed as “significantly smaller”. For the same molecule, the “nitrite levels (a marker of NO levels)” value in assay [5] was “significant decrease”. Also, the clonogenic survival result in assay [6] was “significant decrease”. Also, the average tumor size entry in assay [7] is “significantly smaller”.

These data come from patent US20260284009A1, “COMPOUNDS FOR NOS-RELATED CANCERS AND METHODS OF USE” (YISSUM RESEARCH DEVELOPMENT COMPANY OF THE HEBREW …, priority 2023, published 2026).
